Laboratory results published in US12036231B2, “Cyclic dinucleotides as agonists of stimulator of interferon gene dependent signalling” (Board of Regents, The University of Texas System, priority 2017, dated 2024).

Columns and labels:
MT4-2D cells = assay: Mouse Ductal Pancreatic Cancer Assay (subcutaneous MT4-2D tumors, intra-tumoral injection); assay type: in vivo, C57BL/6J mice; details: 5 ug intra-tumorally on day 15
Description: Mouse Ductal Pancreatic Cancer Assay
The procedure of Boj et a. […] 2.5×10^5 MT4-2D cells were injected subcutaneously on the right flank of male 6 week old C57BL/6J mice. 5 ug of the indicated STING agonist was injected intra-tumorally on day 15 in a volume of 50 ul.

STING receptor [1] = target: T1, STING receptor (Homo sapiens, UniProt Q86WV6, G230A/H232R/R293Q/R71H); assay: THP-1 Dual assay, NF-κB pathway (SEAP reporter); assay type: cell-based; details: 18 h incubation
T1 construct: host or cells: THP-1 Dual cells (human monocytic THP-1 with NF-kB-SEAP and IRF-Lucia reporters)
From the text: (§1) The INVIVOGEN® THP-1 Dual™ assay (catalog code: thpd-nfis) was used to evaluate the listed compounds as agonist of the STING receptor. The THP-1 Dual™ cells are derived from the human monocytic cell line THP-1 by stable integration of two inducible reporter constructs. This assay enables simultaneous study of the two main signaling pathways for STING: (a) the NF-κB pathway, by monitoring the activity of secreted embryonic alkaline phosphatase (SEAP); and (b) the Interferon regulatory factor (IRF) pathway, by assessing the activity of a secreted luciferase (Lucia™).
(§2) The procedure as set forth by the manufacturer was followed, with the following modifications: (1) plates are incubated 18 h after addition of cell suspension, and (2) the optional differentiation step is not employed. Tables 1 and 2. Biological Activity

STING receptor [2] = target: T1, STING receptor; assay: THP-1 Dual assay, IRF pathway (secreted Lucia luciferase reporter; IRF3 activation); assay type: cell-based; details: 18 h incubation
From the text: as §1, §2

[3] = day 0 post challenge (before dosing)
[4] = day 4 post challenge (before dosing)
[5] = day 6 post challenge (before dosing)
[6] = day 8 post challenge (before dosing)
[7] = day 10 post challenge (before dosing)
[8] = day 12 post challenge (before dosing)
[9] = day 14 post challenge (before dosing)
[10] = day 15 post challenge (day of dosing)

T1 sequence (Q86WV6 whole entry R71H/G230A/H232R/R293Q): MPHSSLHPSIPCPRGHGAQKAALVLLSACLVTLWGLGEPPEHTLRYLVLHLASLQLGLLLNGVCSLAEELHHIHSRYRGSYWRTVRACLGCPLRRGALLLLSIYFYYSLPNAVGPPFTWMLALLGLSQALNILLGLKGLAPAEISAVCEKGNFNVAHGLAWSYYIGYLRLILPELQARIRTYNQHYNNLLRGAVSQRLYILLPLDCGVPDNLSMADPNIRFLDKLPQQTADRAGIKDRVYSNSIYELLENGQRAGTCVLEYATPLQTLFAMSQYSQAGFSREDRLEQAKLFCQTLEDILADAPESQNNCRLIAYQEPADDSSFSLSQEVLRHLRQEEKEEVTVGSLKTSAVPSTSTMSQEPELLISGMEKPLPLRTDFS

Row | Compound | Tumor Vol (MT4-2D cells; [3]) [mm^3] | Tumor Vol (MT4-2D cells; [4]) [mm^3] | Tumor Vol (MT4-2D cells; [5]) [mm^3] | Tumor Vol (MT4-2D cells; [6]) [mm^3] | Tumor Vol (MT4-2D cells; [7]) [mm^3] | Tumor Vol (MT4-2D cells; [8]) [mm^3] | Tumor Vol (MT4-2D cells; [9]) [mm^3] | Tumor Vol (MT4-2D cells; [10]) [mm^3] | Tumor Vol (MT4-2D cells; day 16 post challenge) [mm^3] | Tumor Vol (MT4-2D cells; day 22 post challenge) [mm^3] | Tumor Vol (MT4-2D cells; day 25 post challenge) [mm^3] | Tumor Vol (MT4-2D cells; day 27 post challenge) [mm^3] | Tumor Vol (MT4-2D cells; day 29 post challenge) [mm^3] | Tumor Vol (MT4-2D cells; day 32 post challenge) [mm^3] | Fold induction of NF-κB activation THP-1 Dual cells (STING receptor [1]; 5 mg/mL STING agonist) [fold] | Fold induction of IRF3 activation in THP-1 Dual cells (STING receptor [2]; 1 mg/mL STING agonist) [fold] | Fold induction of IRF3 activation in THP-1 Dual cells (STING receptor [2]; 5 mg/mL STING agonist) [fold] | Fold induction of NF-κB activation THP-1 Dual cells (STING receptor [1]; 0.1 mg/mL STING agonist) [fold] | Fold induction of NF-κB activation THP-1 Dual cells (STING receptor [1]; 0.5 mg/mL STING agonist) [fold] | Fold induction of NF-κB activation THP-1 Dual cells (STING receptor [1]; 1 mg/mL STING agonist) [fold] | other results
1 | Nc1ncnc2c1ncn2[C@@H]1O[C@@H]2COP(=O)(S)O[C@@H]3[C@H](O)[C@@H](CO[P@@](=O)(S)O[C@H]2[C@H]1F)O[C@H]3n1cnc2c(N)ncnc21 (stereo partly drawn) [Example 2a, (1R,6R,8R,9R,10R,12R,15R,17R,18R)-8,17-di(6-amino-9H-purin-9-yl)-9-fluoro-18-hydroxy-3,12-dimercapto-2,4,7,11,13,16-hexaoxa-3λ^5, 12λ^5-diphosphatricyclo-[13.2.1.0^6,10]octadecane-3,12-dione] | 0.0 | 29.2 | 64.3 | 84.3 | 103.3 | 125.9 | 113.8 | 132.1 | 134.0 | 91.6 | 124.0 | 142.0 | 163.1 | 217.7 | – | – | – | – | – | – | Tumor Vol (MT4-2D cells; day 17 post challenge): 122.7 mm^3; Tumor Vol (MT4-2D cells; day 18 post challenge): 82.8 mm^3; Tumor Vol (MT4-2D cells; day 20 post challenge): 72.8 mm^3
2 | Nc1ncnc2c1ccn2[C@@H]1O[C@@H]2COP(=O)(S)O[C@@H]3[C@H](O)[C@@H](CO[P@@](=O)(S)O[C@@H]2[C@H]1O)O[C@H]3n1cnc2c(N)ncnc21 (single isomer, unassigned) [Example 1a] | – | – | – | – | – | – | – | – | – | – | – | – | – | – | 2.77 | 9.77 | 112.64 | – | – | – | –
3 | Nc1ncnc2c1ccn2[C@@H]1O[C@@H]2COP(=O)(S)O[C@@H]3[C@H](O)[C@@H](CO[P@@](=O)(S)O[C@@H]2[C@H]1O)O[C@H]3n1cnc2c(N)ncnc21 (single isomer, unassigned) [Example 1b] | – | – | – | – | – | – | – | – | – | – | – | – | – | – | 1.29 | 3.52 | 25.91 | 0.97 | 0.99 | 1.01 | Fold induction of NF-κB activation THP-1 Dual cells (STING receptor [1]; 10 mg/mL STING agonist): 3.71 fold; Fold induction of IRF3 activation in THP-1 Dual cells (STING receptor [2]; 0.1 mg/mL STING agonist): 0.99 fold; Fold induction of IRF3 activation in THP-1 Dual cells (STING receptor [2]; 0.5 mg/mL STING agonist): 1.88 fold; Fold induction of IRF3 activation in THP-1 Dual cells (STING receptor [2]; 10 mg/mL STING agonist): 87.63 fold
4 | Nc1ncnc2c1ncn2[C@@H]1O[C@@H]2COP(=O)(S)O[C@@H]3[C@H](O)[C@@H](CO[P@@](=O)(S)O[C@H]2[C@H]1F)O[C@H]3n1cnc2c(N)ncnc21 (stereo partly drawn) [Example 2b, (1R,6R,8R,9R,10R,12R,15R,17R,18R)-8,17-di(6-amino-9H-purin-9-yl)-9-fluoro-18-hydroxy-3,12-dimercapto-2,4,7,11,13,16-hexaoxa-3λ^5, 12λ^5-diphosphatricyclo-[13.2.1.0^6,10]octadecane-3,12-dione] | 0.0 | 28.4 | 53.9 | 66.5 | 87.4 | 98.3 | 106.6 | 114.7 | 130.8 | 64.9 | 70.4 | 80.7 | 99.6 | 102.6 | – | – | – | – | – | – | Tumor Vol (MT4-2D cells; day 17 post challenge): 128.3 mm^3; Tumor Vol (MT4-2D cells; day 18 post challenge): 90.4 mm^3; Tumor Vol (MT4-2D cells; day 20 post challenge): 115.3 mm^3
5 | Nc1nc2c(ncn2[C@@H]2O[C@@H]3COP(=O)(O)O[C@H]4[C@@H](O)[C@H](n5cnc6c(=O)[nH]c(N)nc65)O[C@@H]4COP(=O)(O)O[C@H]3[C@H]2O)c(=O)[nH]1 [3′,5′-c-di-GMP, cyclic di-GMP (guanosine 5′-monophosphate), reference compound] | – | – | – | – | – | – | – | – | – | – | – | – | – | – | 1.02 | 1.32 | 2.87 | 0.99 | 0.98 | 0.97 | Fold induction of NF-κB activation THP-1 Dual cells (STING receptor [1]; 10 mg/mL STING agonist): 1.10 fold; Fold induction of IRF3 activation in THP-1 Dual cells (STING receptor [2]; 0.1 mg/mL STING agonist): 1.07 fold; Fold induction of IRF3 activation in THP-1 Dual cells (STING receptor [2]; 0.5 mg/mL STING agonist): 1.26 fold; Fold induction of IRF3 activation in THP-1 Dual cells (STING receptor [2]; 10 mg/mL STING agonist): 5.93 fold
6 | Nc1ncnc2c1ncn2[C@@H]1O[C@@H]2COP(O)(=S)O[C@@H]3C(O)[C@@H](COP(O)(=S)O[C@H]2[C@H]1O)O[C@H]3n1cnc2c(N)ncnc21 (stereo partly drawn) [ML-RR-CDA, dithio-[Rp,Sp]-cyclic-[A(2′,5′)p-A(3′,5′)p], reference compound] | 0.0 | 19.0 | 56.3 | 81.9 | 84.5 | 107.3 | 110.9 | 125.6 | 193.2 | 147.2 | 154.0 | 241.4 | 198.5 | 250.1 | – | – | – | – | – | – | –
7 | Nc1ncnc2c1ccn2[C@@H]1O[C@@H]2CO[P@@](=O)(S)O[C@@H]3[C@@H](O)[C@H](n4cnc5c(N)ncnc54)O[C@@H]3COP(=O)(S)O[C@@H]1[C@@H]2O (stereo partly drawn) [Example 3b, (1R,6R,8R,9R,10R,12R,15R,17R,18R)-17-(4-amino-7H-pyrrolo[2,3-d]pyrimidin-7-yl)-8-(6-amino-9H-purin-9-yl)-9,18-dihydroxy-3,12-dimercapto-2,4,7,11,13,16-hexaoxa-3λ^5, 12λ^5-diphosphatricyclo[13.2.1.0^6,10]octadecane-3,12-dione] | – | – | – | – | – | – | – | – | – | – | – | – | – | – | 1.08 | 1.56 | 5.05 | 0.98 | 0.99 | 1.00 | Fold induction of NF-κB activation THP-1 Dual cells (STING receptor [1]; 10 mg/mL STING agonist): 1.14 fold; Fold induction of IRF3 activation in THP-1 Dual cells (STING receptor [2]; 0.1 mg/mL STING agonist): 1.38 fold; Fold induction of IRF3 activation in THP-1 Dual cells (STING receptor [2]; 0.5 mg/mL STING agonist): 1.48 fold; Fold induction of IRF3 activation in THP-1 Dual cells (STING receptor [2]; 10 mg/mL STING agonist): 6.70 fold
